Test results from PubChem BioAssay (NCI).
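1) Cells in 96-well plates. 2) Compound, 48 h, 5 concentrations. 3) Linear interpolation between surrounding doses. 4) Unreached endpoint = highest concentration. At the GI50, growth is halved. The concentration for full growth arrest is given as TGI.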

Columns and labels:
Assay in all cases: NCI-60 cell line screen, 48 h
SW-620 colon = system: SW-620 colon
MCF7 breast = system: MCF7 breast
RPMI-8226 leukemia = system: RPMI-8226 leukemia
OVCAR-3 ovarian = system: OVCAR-3 ovarian
OVCAR-5 ovarian = system: OVCAR-5 ovarian
COLO 205 colon = system: COLO 205 colon
NCI-H23 lung = system: NCI-H23 lung
MDA-MB-435 = system: MDA-MB-435
T-47D breast = system: T-47D breast
TK-10 renal = system: TK-10 renal
EKVX NSCLC = system: EKVX NSCLC
HS 578T breast = system: HS 578T breast
SN12C renal = system: SN12C renal
NCI/ADR-RES ovarian = system: NCI/ADR-RES ovarian
NCI-H460 lung = system: NCI-H460 lung
SR leukemia = system: SR leukemia
PC-3 prostate = system: PC-3 prostate
SNB-75 CNS = system: SNB-75 CNS
HCT-15 colon = system: HCT-15 colon
HCC-2998 colon = system: HCC-2998 colon
HL-60(TB) leukemia = system: HL-60(TB) leukemia
UO-31 renal = system: UO-31 renal
HOP-62 NSCLC = system: HOP-62 NSCLC
KM12 colon = system: KM12 colon
SF-295 CNS = system: SF-295 CNS
ACHN renal = system: ACHN renal
K-562 leukemia = system: K-562 leukemia
CAKI-1 renal = system: CAKI-1 renal
NCI-H226 lung = system: NCI-H226 lung
SF-539 CNS = system: SF-539 CNS
SK-OV-3 ovarian = system: SK-OV-3 ovarian
SK-MEL-5 melanoma = system: SK-MEL-5 melanoma
IGROV1 ovarian = system: IGROV1 ovarian
BT-549 breast = system: BT-549 breast
786-0 renal = system: 786-0 renal
MOLT-4 leukemia = system: MOLT-4 leukemia
UACC-257 melanoma = system: UACC-257 melanoma
NCI-H522 lung = system: NCI-H522 lung
SK-MEL-28 melanoma = system: SK-MEL-28 melanoma
OVCAR-4 ovarian = system: OVCAR-4 ovarian
RXF 393 renal = system: RXF 393 renal
SK-MEL-2 melanoma = system: SK-MEL-2 melanoma
A549 NSCLC = system: A549 NSCLC
DU-145 prostate = system: DU-145 prostate
U251 CNS = system: U251 CNS
SNB-19 CNS = system: SNB-19 CNS
UACC-62 melanoma = system: UACC-62 melanoma
HT29 colon = system: HT29 colon
HCT-116 colon = system: HCT-116 colon
LOX IMVI melanoma = system: LOX IMVI melanoma
HOP-92 NSCLC = system: HOP-92 NSCLC
M14 melanoma = system: M14 melanoma
OVCAR-8 ovarian = system: OVCAR-8 ovarian
SF-268 CNS = system: SF-268 CNS
MDA-MB-231 breast = system: MDA-MB-231 breast

`COC(=O)C1=C(OC(=O)c2ccccc2)C(C(=O)OC)[C@]2(O)[C@@H](C(=O)OC)C1CC(c1ccccc1OC)[C@@H]2C(=O)OC` (stereo not given in full) was tested, and the GI50 (SW-620 colon) was 15.3 µM, the TGI (SW-620 colon) was > 100 µM and the GI50 (MCF7 breast) was 77.5 µM. The TGI (MCF7 breast) was > 100 µM, the GI50 (RPMI-8226 leukemia) was 6.17 µM and the TGI (RPMI-8226 leukemia) was 38.2 µM. The GI50 (OVCAR-3 ovarian) was 2.55 µM, the TGI (OVCAR-3 ovarian) was > 100 µM and the GI50 (OVCAR-5 ovarian) was 41.5 µM. For the same molecule, the TGI (OVCAR-5 ovarian) was > 100 µM, the GI50 (COLO 205 colon) was 15.5 µM and the TGI (COLO 205 colon) was > 100 µM. For the same molecule, the GI50 (NCI-H23 lung) was 24.2 µM, the TGI (NCI-H23 lung) was 72.7 µM and the GI50 (MDA-MB-435) was 1.89 µM. The TGI (MDA-MB-435) was 4.4 µM, the GI50 (T-47D breast) was 22 µM and the TGI (T-47D breast) was > 100 µM. The GI50 (TK-10 renal) was 26.5 µM, the TGI (TK-10 renal) was > 100 µM and the GI50 (EKVX NSCLC) was 4.02 µM. For the same molecule, the TGI (EKVX NSCLC) was 35.3 µM, the GI50 (HS 578T breast) was 5.98 µM and the TGI (HS 578T breast) was 83.4 µM. It also gave a GI50 (SN12C renal) of 10.2 µM, a TGI (SN12C renal) of 51.5 µM and a GI50 (NCI/ADR-RES ovarian) of 21 µM. For the same molecule, the TGI (NCI/ADR-RES ovarian) was 55.5 µM, the GI50 (NCI-H460 lung) was 50.9 µM and the TGI (NCI-H460 lung) was > 100 µM. For the same molecule, the GI50 (SR leukemia) was 1.54 µM, the TGI (SR leukemia) was 5.16 µM and the GI50 (PC-3 prostate) was 9.08 µM. The TGI (PC-3 prostate) was 69.2 µM, the GI50 (SNB-75 CNS) was 10.7 µM and the TGI (SNB-75 CNS) was > 100 µM. The GI50 (HCT-15 colon) was 30.1 µM, the TGI (HCT-15 colon) was > 100 µM and the GI50 (HCC-2998 colon) was 17.6 µM. It also gave a TGI (HCC-2998 colon) of 34.1 µM, a GI50 (HL-60(TB) leukemia) of 14.7 µM and a TGI (HL-60(TB) leukemia) of 67.1 µM. The GI50 (UO-31 renal) was 13.9 µM, the TGI (UO-31 renal) was 50.5 µM and the GI50 (HOP-62 NSCLC) was 38.3 µM. The TGI (HOP-62 NSCLC) was > 100 µM, the GI50 (KM12 colon) was 7.9 µM and the TGI (KM12 colon) was > 100 µM. For the same molecule, the GI50 (SF-295 CNS) was 5.41 µM, the TGI (SF-295 CNS) was > 100 µM and the GI50 (ACHN renal) was 41.9 µM. For the same molecule, the TGI (ACHN renal) was > 100 µM, the GI50 (K-562 leukemia) was 17.6 µM and the TGI (K-562 leukemia) was > 100 µM. For the same molecule, the GI50 (CAKI-1 renal) was 3.99 µM, the TGI (CAKI-1 renal) was > 100 µM and the GI50 (NCI-H226 lung) was 15.2 µM. For the same molecule, the TGI (NCI-H226 lung) was 80.7 µM, the GI50 (SF-539 CNS) was 3.45 µM and the TGI (SF-539 CNS) was 10.8 µM. The GI50 (SK-OV-3 ovarian) was 5.62 µM, the TGI (SK-OV-3 ovarian) was > 100 µM and the GI50 (SK-MEL-5 melanoma) was 4.09 µM. For the same molecule, the TGI (SK-MEL-5 melanoma) was 20.5 µM, the GI50 (IGROV1 ovarian) was 44.5 µM and the TGI (IGROV1 ovarian) was > 100 µM. For the same molecule, the GI50 (BT-549 breast) was 5.58 µM, the TGI (BT-549 breast) was 83.6 µM and the GI50 (786-0 renal) was 30.8 µM. The TGI (786-0 renal) was > 100 µM, the GI50 (MOLT-4 leukemia) was 5.52 µM and the TGI (MOLT-4 leukemia) was 37.8 µM. For the same molecule, the GI50 (UACC-257 melanoma) was 5.37 µM, the TGI (UACC-257 melanoma) was 34.8 µM and the GI50 (NCI-H522 lung) was 8.93 µM. The TGI (NCI-H522 lung) was > 100 µM, the GI50 (SK-MEL-28 melanoma) was 23.2 µM and the TGI (SK-MEL-28 melanoma) was > 100 µM. For the same molecule, the GI50 (OVCAR-4 ovarian) was 4.75 µM, the TGI (OVCAR-4 ovarian) was > 100 µM and the GI50 (RXF 393 renal) was 2.53 µM. The TGI (RXF 393 renal) was 8.65 µM, the GI50 (SK-MEL-2 melanoma) was 36.2 µM and the TGI (SK-MEL-2 melanoma) was > 100 µM. It also gave a GI50 (A549 NSCLC) of 12.9 µM, a TGI (A549 NSCLC) of 77.9 µM and a GI50 (DU-145 prostate) of 5.51 µM. The TGI (DU-145 prostate) was > 100 µM, the GI50 (U251 CNS) was 37.9 µM and the TGI (U251 CNS) was > 100 µM. For the same molecule, the GI50 (SNB-19 CNS) was 25.1 µM, the TGI (SNB-19 CNS) was > 100 µM and the GI50 (UACC-62 melanoma) was 4.59 µM. The TGI (UACC-62 melanoma) was 23.2 µM, the GI50 (HT29 colon) was 22.2 µM and the TGI (HT29 colon) was > 100 µM. It also gave a GI50 (HCT-116 colon) of 13.9 µM, a TGI (HCT-116 colon) of 52.8 µM and a GI50 (LOX IMVI melanoma) of 39.2 µM. For the same molecule, the TGI (LOX IMVI melanoma) was > 100 µM, the GI50 (HOP-92 NSCLC) was 2.69 µM and the TGI (HOP-92 NSCLC) was 31 µM. For the same molecule, the GI50 (M14 melanoma) was 18.6 µM, the TGI (M14 melanoma) was 50.8 µM and the GI50 (OVCAR-8 ovarian) was 18.4 µM. The TGI (OVCAR-8 ovarian) was > 100 µM, the GI50 (SF-268 CNS) was > 100 µM and the TGI (SF-268 CNS) was > 100 µM. It also gave a GI50 (MDA-MB-231 breast) of 14.7 µM and a TGI (MDA-MB-231 breast) of 60.2 µM.
